Emission maximum data for 43 compounds are collected here from the Deep4Chem optical property database.

A short description of this series: solvent given as SMILES.

Several values for one entry are separate records, joined by “and”; a condition that tells them apart may be missing. Equal values may be shown once.

As for `CN1C(=O)/C(=C/c2ccncc2)N=C1/C=C/c1ccccc1`, the emission maximum was 546 nm (in C1COCCO1); 550 nm (in CC#N); 550 nm (in CCO); 544 nm (in CCOC(C)=O); 560 nm (in O).
In the case of `CCCCCCN(CCCCCC)c1ccc(C#Cc2ccc(C(F)(F)F)cc2)cc1`, the emission maximum worked out at 456 nm (in CO) and 440 nm (in ClCCl).
Compound `CCCCCCCCCCCCOc1cc(C(=O)Nc2ccc(-c3ccc4c(c3)C(=O)c3ccccc3-4)cc2)cc(OCCCCCCCCCCCC)c1OCCCCCCCCCCCC` returned an emission maximum (in C1CCOC1) of 529 nm.
As for `Cc1cc(C2=Cc3cccc[n+]3[B-](F)(F)O2)ccc1N(C)C`, the emission maximum (in ClC(Cl)Cl) came to 491 nm.
The same measure, in the same setting: the result for `CCCCCCn1c2ccccc2c2cc3c4cc5c6ccccc6n(CCCCCC)c5cc4c4cc5c(C)cc(=O)oc5cc4c3cc21` reads 415 nm.
Compound `CCCCCCc1ccc(-n2c3[n+](c4c5ccccc5c5ccccc5c42)[B-](C)(C)c2ccc4ccccc4c2-3)cc1` yielded an emission maximum (in C1CCOC1) of 444 nm, an emission maximum (in CC#N) of 443 nm, an emission maximum (in Cc1ccccc1) of 444 nm and an emission maximum (in ClCCl) of 435 nm.
Compound `c1ccc(C2=C(c3ccccc3)c3cccc4c3c(cc3nc5cc(-c6ccccc6)c(-c6ccccc6)cc5nc34)O2)cc1` yielded an emission maximum (in ClCCl) of 559 nm.
Consider `CCOC(=O)COc1ccccc1C(c1c(C)[nH]c2ccccc12)c1c(C)[nH]c2ccccc12`, for which the emission maximum amounted to 328 nm (in C1CCCCC1), 348 nm (in CC#N), 349 nm (in CO) and 350 nm (in O).
Consider `CSc1ccc(C#Cc2ccc(C#Cc3ccc(C#Cc4ccccc4C#N)cc3C#N)cc2C#N)cc1`, for which the emission maximum (in ClC(Cl)Cl) is 455 nm.
For the compound `Cc1ccc2[nH]c(-c3ccc(-c4ccc(-c5ccc(-c6nc7cc(C)ccc7[nH]6)cc5)cc4)cc3)nc2c1`, the emission maximum (in CN(C)C=O) is recorded as 416 nm.
Under “in ClCCl”, `COc1c2ccccc2c(OC)c2c(C#C[Si](C(C)C)(C(C)C)C(C)C)c3cc4ccccc4cc3c(C#C[Si](C(C)C)(C(C)C)C(C)C)c12` gave an emission maximum of 712 nm.
On to `COc1ccc(-c2nc(C)cc(-c3ccc(-n4c5ccccc5c5ccccc54)cc3)n2)cc1`, for which the emission maximum reads like this: (in C1CCOC1) 418 nm; (in CN(C)C=O) 453 nm; (in Cc1ccccc1) 390 nm; (in ClC(Cl)Cl) 421 nm.
As to `CCCCCCCCCCCCCCCCN(CCCCCCCCCCCCCCCC)c1ccc(/C=C/c2cc[n+](Cc3cc(C[n+]4ccc(/C=C/c5ccc(N(CCCCCCCCCCCCCCCC)CCCCCCCCCCCCCCCC)cc5)cc4)cc(C[n+]4ccc(/C=C/c5ccc(N(CCCCCCCCCCCCCCCC)CCCCCCCCCCCCCCCC)cc5)cc4)c3)cc2)cc1`, the emission maximum by setting is: (in C1COCCO1) 578 nm; (in CC(C)O) 613 nm; (in CCCCCC) 630 nm; (in CCCCCCCCO) 589 nm; (in CCCCO) 612 nm; (in CCCO) 617 nm. Also, the emission maximum is, setting by setting: (in CCO) 621 nm; (in CO) 624 nm; (in CS(C)=O) 615 nm; (in Cc1ccc(C)cc1) 556 nm; (in Cc1ccccc1) 559 nm; (in ClC(Cl)Cl) 587 nm. Moreover, the emission maximum by setting is: (in ClCCl) 606 nm; (in c1ccccc1) 562 nm.
With `O=C1c2ccccc2NC(c2ccccc2)N1Cc1ccccc1` (stereo unspecified), the emission maximum was determined as 407 nm (in CC#N); 383 nm (in CCCCCCCCCCCCCCCC); 442 nm (in CO); 398 nm (in ClC(Cl)Cl); 393 nm (in c1ccccc1).
Regarding `Cc1cc(-c2ccc(C(C)(C)C)cc2)cc(C)[o+]1`, the emission maximum (in CC#N) is recorded as 430 nm and the emission maximum (in ClCCl) came to 417 nm.
Regarding `Fc1ccc(N(c2ccccc2)c2ccc3ccc4c(N(c5ccccc5)c5ccc(F)cc5)ccc5ccc2c3c54)cc1`, the emission maximum (in ClCCl) was 470 nm.
Take `CN(C)c1ccc(/C=C/c2cc[n+](Cc3cc(C[n+]4ccc(/C=C/c5ccc(N(C)C)cc5)cc4)cc(C[n+]4ccc(/C=C/c5ccc(N(C)C)cc5)cc4)c3)cc2)cc1`: the emission maximum amounted to 580 nm (in C1COCCO1); 607 nm (in CC(C)O); 595 nm (in CCCCCCCCO); 608 nm (in CCCCO); 611 nm (in CCCO); 613 nm (in CCO). The emission maximum by setting is: (in CO) 618 nm; (in CS(C)=O) 627 nm; (in ClC(Cl)Cl) 580 nm; (in ClCCl) 600 nm.
Take `c1ccc(N(c2ccccc2)c2ccc(-c3ccncn3)cc2)cc1`: the emission maximum (in ClCCl) came to 482 nm.
Take `F[Si-](F)(c1ccccc1)(c1ccccc1)c1c2ccccc2cc2ccccc12`: the emission maximum (in C1CCOC1) stood at 399 nm.
Consider `c1ccc(-n2c3ccccc3c3c2c2ccccc2n3-c2ccccc2)cc1`, for which the emission maximum (in Cc1ccccc1) came out at 376 nm.
Take `O=c1oc2c(ccc3ccccc32)nc1-c1ccccc1`: the emission maximum by setting is: (in CC#N) 490 nm; (in CCCCCC) 459 nm; (in CO) 511 nm; (in c1ccccc1) 478 nm and 468 nm.
`O=[N+]([O-])c1ccc(NCCN(Cc2c3ccccc3cc3ccccc23)c2ccc([N+](=O)[O-])cc2[N+](=O)[O-])c([N+](=O)[O-])c1` displayed an emission maximum (in C1CCCCC1) of 419 nm; an emission maximum (in C1CCOC1) of 416 nm; an emission maximum (in CC#N) of 389 nm; an emission maximum (in CC(C)=O) of 388 nm; an emission maximum (in CCO) of 388 nm; an emission maximum (in CN(C)C=O) of 409 nm. The emission maximum is, setting by setting: (in CO) 389 nm; (in ClC(Cl)Cl) 417 nm.
For the compound `COc1ccc(/C=C(\c2ccccc2)c2nc3ccccc3s2)cc1`, the emission maximum reads like this: (in C1CCCCC1) 400 nm; (in CO) 420 nm.
`CCC[n+]1ccc(/C=C/c2ccc(N(C)C)cc2)cc1` displayed an emission maximum (in C1COCCO1) of 557 nm; an emission maximum (in CC(C)O) of 571 nm; an emission maximum (in CCCCO) of 576 nm; an emission maximum (in CCCO) of 576 nm; an emission maximum (in CCO) of 576 nm; an emission maximum (in CO) of 579 nm. The emission maximum came to 589 nm (in CS(C)=O), 560 nm (in ClC(Cl)Cl), 560 nm (in ClCCl) and 552 nm (in c1ccccc1).
Compound `CCn1c2ccccc2c2ccc(-c3ccc(OC)cc3)cc21` had an emission maximum (in C1CCCCC1) of 383 nm.
In the case of `COc1ccc(/C=C/C2=CC(/C=C/c3ccc(OC)c4ccccc34)=[O+][B-](F)(F)O2)c2ccccc12`, the emission maximum reads like this: (in CC#N) 651 nm; (in CC(C)=O) 622 nm; (in CCOC(C)=O) 590 nm; (in CCOCC) 587 nm; (in ClC(Cl)(Cl)Cl) 561 nm; (in ClCCl) 616 nm.
`C(=N\c1ccc(-c2cn3nc(-c4cccs4)sc3n2)cc1)/c1c2ccccc2cc2ccccc12` came in with an emission maximum (in ClC(Cl)Cl) of 526 nm.
The compound `COc1ccc(C(=Cc2ccc(C#N)cc2)c2ccc(OC)cc2)cc1` registered an emission maximum (in C1CCOC1) of 395 nm.
On to `CC(C)[Si](C#Cc1c2ccccc2c(C#C[Si](C(C)C)(C(C)C)C(C)C)c2nc3cc4c(cc3nc12)C1c2ccccc2C4c2ccccc21)(C(C)C)C(C)C`, for which the emission maximum is 568 nm (in CCCCCC) and 593 nm (in ClCCl).
Under “in C1CCOC1”, `Cc1cc(C)c([B-]2(c3c(C)cc(C)cc3C)[O+]=P(c3ccccc3)(c3ccccc3)c3ccsc3-c3sccc32)c(C)c1` had an emission maximum of 429 nm.
Still for that read-out and setting: in the case of `COc1ccc(C2=C(c3ccc(OC)cc3)[Si](c3ccccc3)(c3ccccc3)c3ccccc32)cc1` it was 457 nm.
Take `CCCCCCN1C(=O)c2cccc3c(-c4ccc(-c5cc(-c6cccc7ccccc67)nn5-c5ccccc5)s4)ccc(c23)C1=O`: the emission maximum (in ClCCl) was found to be 515 nm.
For the compound `O=C(O)CCCc1cc2ccc3cccc4ccc(c1)c2c34`, for the setting “in CO”, the emission maximum is given as 374 nm.
`C1=Cc2ccccc2C(=Cc2ccc(-c3cc(-c4ccc(C=C5c6ccccc6C=Cc6ccccc65)cc4)cc(-c4ccc(C=C5c6ccccc6C=Cc6ccccc65)cc4)c3)cc2)c2ccccc21` yielded an emission maximum (in C1CCOC1) of 405 nm.
Turning to `O=C1OC(=O)c2ccc(N(c3ccccc3)c3ccc4ccccc4c3)c3cccc1c23`, the emission maximum (in C1CCOC1) is on record as 621 nm, the emission maximum (in CCCCCC) amounted to 520 nm, the emission maximum (in ClCCl) is on record as 638 nm and the emission maximum (in c1ccccc1) turned out to be 580 nm.
For the compound `COc1ccc2c(c1)CCC1=C(C#Cc3ccc(Cl)cc3)O[B-](F)(F)[O+]=C12`, under “in ClCCl”, the emission maximum stood at 472 nm.
Under “in ClC(Cl)Cl”, `CCC[Si](CCC)(CCC)c1cc2ccc3cccc4ccc(c1C(=O)NC(C)(C)C)c2c34` registered an emission maximum of 383 nm.
`Oc1cc(-c2cccs2)ccc1-c1nc2ccccc2s1` showed an emission maximum (in CCO) of 408 nm, an emission maximum (in ClCCl) of 515 nm and an emission maximum (in O) of 517 nm.
`O=C1OC(=O)c2ccc(N(c3ccccc3)c3ccc4ccc5cccc6ccc3c4c56)c3cccc1c23`: the emission maximum worked out at 536 nm (in CCCCCC) and 605 nm (in c1ccccc1).
In turn, `CC1(C)C(/C=C2\C(=O)C(/C=C3\Nc4ccccc4C3(C)C)=C2[O-])=[NH+]c2ccccc21` displayed an emission maximum (in ClC(Cl)Cl) of 670 nm.
Take `Cc1ccc2ccc3c(C)ccc4ccc1c2c43`: the emission maximum is 380 nm (in CCCCCC), 381 nm (in CO) and 382 nm (in ClCCl).
Take `C[C@@]12SC(Cl)=CC1=c1nc(-c3ccc(Cl)cc3)[nH]c1=C1C=C(Cl)S[C@]12C`: under “in CC#N”, the emission maximum worked out at 449 nm.
For the compound `O=C([O-])c1ccccc1-c1c2cc(Br)c(=O)c(Br)c-2oc2c(Br)c([O-])c(Br)cc12`, the emission maximum is, setting by setting: (in CC(C)O) 551 nm; (in CCO) 550 nm; (in CO) 542 nm; (in O) 538 nm.
